Where two headings read alike, the source gives them in different places.
Experiments:
[1] = tested on: P. aeruginosa PAO1 planktonic cells; test: MIC of antibiotics against planktonic cells, PAO1; assay type: cell-based, Pseudomonas aeruginosa; settings: for MIC against planktonic cells in BM2 medium: PAO1, BM2; for MIC against planktonic cells in MHB medium: PAO1, MHB; for MIC: Pseudomonas aeruginosa
[2] = tested on: P. aeruginosa PAO1 biofilms; test: Checkerboard biofilm synergy of AB103-D with antimicrobials, PAO1; assay type: cell-based, Pseudomonas aeruginosa; settings: for FIC against biofilms: antibiotic used with AB103-D, ≤0.5 synergy; for Fold Decrease in concentration of AB103-D: in combination of antibiotic with AB103-D; for Fold Decrease in concentration of AB103-D / Fold Decrease in concentration of Antibiotic: PAO1; for Fold Decrease in concentration of Antibiotic: in combination with AB103-D
[3] = tested on: MRSA USA 300 LAC biofilms; test: Checkerboard biofilm synergy of AB103-D with antimicrobials, MRSA; assay type: cell-based, methicillin resistant Staphylococcus aureus; settings: for Biofilm MBIC in 10% TSB, 0.1% glucose / Fold decrease AB103-D / Fold decrease Antibiotic: MRSA; for FIC: antibiotic used with AB103-D, MRSA USA 300 LAC, ≤0.5 synergy; for Fold decrease AB103-D: in combination of antibiotic with AB103-D; for Fold decrease Antibiotic: in combination with AB103-D
[4] = tested on: MRSA USA 300 LAC planktonic cells; test: MIC of antibiotics against planktonic cells, MRSA; assay type: cell-based, methicillin resistant Staphylococcus aureus; settings: for MIC in 10% TSB, 0.1% glucose / MIC in MHB medium: MRSA planktonic; for MIC: Staphylococcus aureus
[5] = antibiotic alone, PAO1, BM2, at least 70% reduction
[6] = antibiotic alone, at least 70% reduction
[7] = PAO1, read-out: MIC against planktonic cells in BM2 medium
[8] = PAO1, read-out: MIC against planktonic cells in MHB medium
[9] = read-out: MIC in 10% TSB, 0.1% glucose

Row | Compound | MIC against planktonic cells in BM2 medium [1] | MIC against planktonic cells in MHB medium [1] | Antibiotic MBIC against biofilms [2, 5] | FIC against biofilms ([2]; PAO1, BM2) | Fold Decrease in concentration of AB103-D [2] | Fold Decrease in concentration of Antibiotic [2] | Biofilm MBIC in 10% TSB, 0.1% glucose [3, 6] | FIC [3] | Fold decrease AB103-D [3] | Fold decrease Antibiotic [3] | MIC in 10% TSB, 0.1% glucose ([4]; 10% TSB, 0.1% glucose) | MIC in MHB medium [4] | MIC [1, 7] | MIC [1, 8] | MIC [4, 9] | MIC ([4]; read-out: MIC in MHB medium) | further results
1 | O=C(O)CN(CCN(CC(=O)O)CC(=O)O)CC(=O)O [EDTA] | >256 µg/mL | >256 µg/mL | 128 µg/mL | 1.02 | No | 64-fold | 128 | 0.38 | 4-fold | 8-fold | 128 | 64 µg/mL |  |  |  |  | 
2 | C/C(=C\C(=O)OCCCCCCCCC(=O)O)C[C@@H]1OC[C@H](C[C@@H]2O[C@H]2[C@@H](C)[C@H](C)O)[C@@H](O)[C@H]1O [Mupirocin] |  |  |  |  | No | No |  | 0.75 | 2-fold | 4-fold |  |  | > 128 µg/mL | > 256 µg/mL | 0.25 µg/mL | 0.125 µg/mL | 
3 | CC[C@H]1OC(=O)[C@H](C)[C@@H](O[C@H]2C[C@@](C)(OC)[C@@H](O)[C@H](C)O2)[C@H](C)[C@@H](O[C@@H]2O[C@H](C)C[C@H](N(C)C)[C@H]2O)[C@](C)(O)C[C@@H](C)CN(C)[C@H](C)[C@@H](O)[C@]1(C)O [Azithromycin] |  |  |  | 0.75 | 2-fold | 4-fold |  | 0.38 | 8-fold | 4-fold |  |  | 128 µg/mL | 128 µg/mL | 4 µg/mL | 1 µg/mL | 
4 | CN[C@H](CC(C)C)C(=O)N[C@H]1C(=O)N[C@@H](CC(N)=O)C(=O)N[C@H]2C(=O)N[C@H]3C(=O)N[C@H](C(=O)N[C@H](C(=O)O)c4cc(O)cc(O)c4-c4cc3ccc4O)[C@H](O)c3ccc(c(Cl)c3)Oc3cc2cc(c3O[C@@H]2O[C@H](CO)[C@@H](O)[C@H](O)[C@H]2O[C@H]2C[C@](C)(N)[C@H](O)[C@H](C)O2)Oc2ccc(cc2Cl)[C@H]1O [Vancomycin] |  |  |  | 0.56 | 2-fold | 16-fold |  | 0.38 | 8-fold | 4-fold |  |  | 256 µg/mL | > 256 µg/mL | 0.25 µg/mL | 0.25 µg/mL | 
5 | Gentamicin | 4 µg/mL | 1 µg/mL | 4 µg/mL | 0.53 | 2-fold | 32-fold | 0.03 | 1.13 | No | 8-fold | 0.06 | 0.06 µg/mL |  |  |  |  | 
6 | CCn1cc(C(=O)O)c(=O)c2cc(F)c(N3CCNCC3)cc21 [Norfloxacin] |  |  |  | 1.13 | No | 8-fold |  | 0.5 | 4-fold | 4-fold |  |  | 0.25 µg/mL | 0.5 µg/mL | 32 µg/mL | 32 µg/mL | 
7 | Polymyxin B | 2 µg/mL | 2 µg/mL | 2 µg/mL | 0.56 | 16-fold | 2-fold | 2 | 0.5 | 4-fold | 4-fold | 2 | 4 µg/mL |  |  |  |  | 
8 | O=[N+]([O-])[O-].[Ag+] [AgNO3] | 0.03 µg/mL | 0.125 µg/mL | 0.03 µg/mL | 1 | 2-fold | 2-fold | 0.25 | 1.13 | No | 8-fold | 0.25 | 0.25 µg/mL |  |  |  |  | 
9 | CCC[C@@H]1C[C@@H](C(=O)N[C@@H]([C@H]2O[C@H](SC)[C@H](O)[C@@H](O)[C@H]2O)[C@H](C)Cl)N(C)C1 [Clindamycin] |  |  |  | 1 | 2-fold | 2-fold |  | 0.635 | 2-fold | 8-fold |  |  | > 256 µg/mL | > 256 µg/mL | 0.5 µg/mL | 0.125 µg/mL | 
10 | OO [H2O2] |  |  |  | 0.5 | 4-fold | 4-fold |  | 0.63 | 8-fold | 2-fold |  |  |  |  |  |  | MIC against planktonic cells in BM2 medium ([1]; in %): 0.08%; MIC against planktonic cells in MHB medium ([1]; in %): 0.01%; Antibiotic MBIC against biofilms ([2]; PAO1, BM2, in %): 0.08%; Biofilm MBIC in 10% TSB, 0.1% glucose ([3]; in %): 0.0025%; MIC in MHB medium ([4]; in %): 0.0018%; MIC in 10% TSB, 0.1% glucose ([4]; in %): 0.0025%
11 | Polyvinylpyrrolidone-Iodine | 313 µg/mL | 2500 µg/mL | 313 µg/mL | 0.52 | 2-fold | 64-fold | 156 | 0.63 | 2-fold | 8-fold | 156 | 2500 µg/mL |  |  |  |  | 
12 | CC(C)(O/N=C(\C(=O)N[C@@H]1C(=O)N2C(C(=O)[O-])=C(C[n+]3ccccc3)CS[C@H]12)c1csc(N)n1)C(=O)O [Ceftazidime] |  |  |  | 0.5 | 4-fold | 4-fold |  | 0.5 | 4-fold | 4-fold |  |  | 2 µg/mL | 1 µg/mL | 64 µg/mL | 32 µg/mL | 
13 | NCC[C@H](O)C(=O)N[C@@H]1C[C@H](N)[C@@H](O[C@H]2O[C@H](CN)[C@@H](O)[C@H](O)[C@H]2O)[C@H](O)[C@H]1O[C@H]1O[C@H](CO)[C@@H](O)[C@H](N)[C@H]1O [Amikacin] |  |  |  | 1.06 | No | 16-fold |  | 1 | 2-fold | 2-fold |  |  | 4 µg/mL | 0.5 µg/mL | 0.5 µg/mL | 0.5 µg/mL | 
14 | C[C@@H](O)[C@H]1C(=O)N2C(C(=O)O)=C(S[C@@H]3CN[C@H](C(=O)N(C)C)C3)[C@H](C)[C@H]12 [Meropenem] |  |  |  | 1.06 | 16-fold | No |  | 0.31 | 16-fold | 4-fold |  |  | 0.06 µg/mL | 0.25 µg/mL | 0.25 µg/mL | 0.125 µg/mL | 
15 | CO/N=C(\C(=O)N[C@@H]1C(=O)N2C(C(=O)[O-])=C(C[N+]3(C)CCCC3)CS[C@H]12)c1csc(N)n1 [Cefepime] |  |  |  | 0.56 | 2-fold | 16-fold |  | 0.38 | 8-fold | 4-fold |  |  | 0.5 µg/mL | 1 µg/mL | 8 µg/mL | 8 µg/mL | 
16 | NC[C@H]1O[C@H](O[C@H]2[C@H](O)[C@@H](O[C@H]3O[C@H](CO)[C@@H](O)[C@H](N)[C@H]3O)[C@H](N)C[C@@H]2N)[C@H](N)C[C@@H]1O [Tobramycin] |  |  |  | 1 | 2-fold | 2-fold |  | 0.38 | 8-fold | 4-fold |  |  | 2 µg/mL | 0.5 µg/mL | 0.125 µg/mL | 0.125 µg/mL | 
17 | O=C(O)c1cn(C2CC2)c2cc(N3CCNCC3)c(F)cc2c1=O [Ciprofloxacin] |  |  |  | 0.53 |  |  |  | 0.5 |  |  |  |  |  |  |  |  | 
18 | Colistin | 4 µg/mL | 1 µg/mL | 4 µg/mL | 0.63 | 8-fold | 2-fold | 2 | 0.63 | 2-fold | 8-fold | 4 | 8 µg/mL |  |  |  |  | 
19 | C[C@H]1[C@H](NC(=O)/C(=N\OC(C)(C)C(=O)O)c2csc(N)n2)C(=O)N1S(=O)(=O)O [Aztreonam] |  |  |  | 0.56 | 2-fold | 16-fold |  | 0.75 | 4-fold | 2-fold |  |  | 8 µg/mL | 4 µg/mL | > 128 µg/mL | > 128 µg/mL | 

From patent US20260374818A1, “CATIONIC PEPTIDES WITH BROAD SPECTRUM ACTIVITY” (priority 2023, published 2026)
